Test results from patent publication US8815909B2, “Diaminocyclohexane compounds and uses thereof” (Bristol-Myers Squibb Company, priority 2011, dated 2014).

Each compound was assayed against T1, human Y4 receptor (Homo sapiens, UniProt P50391) (assay: NPY4 cAMP HTRF Agonist Assay (inhibitory cAMP assay, Gi activation by Y4 agonism)). Settings: TABLE 7, R2 is Pyridinyl-oxadiazole-CH3; read-out: hY4 CAMP EC50.
T1 construct: expressed in transfected cells
Type: cell-based
Procedure, shortened: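 Y4 agonism read as lowered forskolin-stimulated cAMP (HTRF, 1 h detection at room temperature). Stable human Y4 CHO clone, 5000 cells/well, incubated 30 min at room temperature with compounds plus forskolin and IBMX in PBS.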

T1 sequence (P50391 whole entry): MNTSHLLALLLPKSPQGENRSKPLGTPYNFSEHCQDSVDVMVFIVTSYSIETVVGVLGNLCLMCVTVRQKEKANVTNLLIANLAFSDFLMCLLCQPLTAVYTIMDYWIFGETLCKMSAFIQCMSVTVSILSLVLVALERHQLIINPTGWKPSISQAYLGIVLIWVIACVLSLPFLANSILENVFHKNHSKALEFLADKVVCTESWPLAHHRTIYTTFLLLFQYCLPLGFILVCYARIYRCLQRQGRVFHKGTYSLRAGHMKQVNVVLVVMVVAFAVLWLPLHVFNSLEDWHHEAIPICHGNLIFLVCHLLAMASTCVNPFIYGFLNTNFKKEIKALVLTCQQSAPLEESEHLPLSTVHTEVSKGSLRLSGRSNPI

| SMILES | EC50 [nM] |
| --- | --- |
| CNC(=O)c1cccc(-c2cnc(N[C@@H]3CCCC[C@H]3N[C@H]3CCCN(c4ccc(-c5noc(C)n5)nc4)C3)o2)c1 [Example 385] | 9 |
| Cc1nc(-c2ccc(N3CCC[C@H](N[C@@H]4CCCC[C@H]4Nc4ncc(-c5cccc(C(=O)NC6CC6)c5)o4)C3)cn2)no1 [Example 387] | 78 |
| Cc1nc(-c2ncc(N3CCC[C@H](N[C@@H]4CCCC[C@H]4Nc4ncc(-c5cccc(C(N)=O)c5)o4)C3)cn2)no1 [Example 390] | 3 |
| Cc1nc(-c2ccc(N3CCC[C@H](N[C@@H]4CCCC[C@H]4Nc4nccc(-c5ccccc5)n4)C3)nc2)no1 [Example 391] | 2 |
| Cc1nc(-c2ccc(N3CCC[C@H](N[C@@H]4CCCC[C@H]4Nc4nccc(-c5ccccc5)n4)C3)cn2)no1 [Example 395] | 5 |
| Cc1nc(-c2ccc(N3CCC[C@H](N[C@@H]4CCCC[C@H]4Nc4ncc(-c5cccc(C(N)=O)c5)o4)C3)cn2)no1 [Example 397] | 3 |

The remaining lines, values ahead:

| EC50 [nM] | SMILES |
| --- | --- |
| 243 | Cc1nc(-c2ccc(N3CCC[C@H](N[C@@H]4CCCC[C@H]4Nc4ncc(-c5cccc(C(=O)NCC(C)C)c5)o4)C3)cn2)no1 [Example 386] |
| 13 | Cc1nc(-c2ccc(N3CCC[C@](C)(N[C@@H]4CCCC[C@H]4Nc4ncc(-c5cccc(C(N)=O)c5)o4)C3)cn2)no1 [Example 389] |
| 194 | Cc1nc(-c2ccc(N3CCC[C@H](N[C@@H]4CCCC[C@H]4Nc4ncc(-c5ccc(OC(F)(F)F)cc5)o4)C3)nc2)no1 [Example 392] |
| 1 | Cc1nc(-c2ccc(N3CCC[C@H](N[C@@H]4CCCC[C@H]4Nc4cc(-c5cccc(C(N)=O)c5)ccn4)C3)nc2)no1 [Example 393] |
| 427 | Cc1nc(-c2ccc(N3CCC[C@H](N[C@@H]4CCCC[C@H]4Nc4ncc(-c5ccc(OC(F)(F)F)cc5)o4)C3)cn2)no1 [Example 394] |
| 0.2 | Cc1nc(-c2ccc(N3CCC[C@H](N[C@@H]4CCCC[C@H]4Nc4ncc(-c5cccc(C(N)=O)c5)o4)C3)nc2)no1 [Example 396] |

Same assay, conditions: human Y4 receptor, cAMP; read-out: hY4 CAMP EC50

| SMILES | EC50 [nM] |
| --- | --- |
| NC(=O)c1cccc(-c2ccnc(N[C@@H]3CCCC[C@H]3N[C@H]3CCCN(c4ncc(C(F)(F)F)cn4)C3)c2)c1 [Example 399] | 22 |
| C[C@]1(N[C@@H]2CCCC[C@H]2Nc2cc(-c3cccc(C(N)=O)c3)ccn2)CCCN(c2ncc(C(F)(F)F)cn2)C1 [Example 400] | 28 |
| Fc1ccc(-c2cnc(N[C@@H]3CCCC[C@H]3N[C@H]3CCCN(c4cnc(C(F)(F)F)nc4)C3)o2)c(F)c1 [Example 403] | 264 |
| FC(F)(F)Oc1cccc(-c2cnc(N[C@@H]3CCCC[C@H]3N[C@H]3CCCN(c4cnc(C(F)(F)F)nc4)C3)o2)c1 [Example 404] | 954 |
| NC(=O)c1cccc(-c2cnc(N[C@@H]3CCCC[C@H]3N[C@H]3C[C@@H]4C[C@H]3N(c3cnc(C(F)(F)F)nc3)C4)o2)c1 [Example 407] | 329 |
| NC(=O)c1cccc(-c2ccnc(N[C@@H]3CCCC[C@H]3N[C@H]3CCCN(c4cnc(C(F)(F)F)nc4)C3)c2)c1 [Example 408] | 121 |
| CC(C)(C)OC(=O)Nc1cccc(-c2cnc(N[C@@H]3CCCC[C@H]3N[C@H]3CCCN(c4cnc(C(F)(F)F)nc4)C3)o2)c1 [Example 410] | 320 |
| O=C(NC1CC1)c1cccc(-c2cnc(N[C@@H]3CCCC[C@H]3N[C@H]3CCCN(c4cnc(C(F)(F)F)nc4)C3)o2)c1 [Example 411] | 10 |
| Nc1cccc(-c2cnc(N[C@@H]3CCCC[C@H]3N[C@H]3CCCN(c4cnc(C(F)(F)F)nc4)C3)o2)c1 [Example 412] | 69 |
| COC(=O)Nc1cccc(-c2ccnc(N[C@@H]3CCCC[C@H]3N[C@H]3CCCN(c4cnc(C(F)(F)F)nc4)C3)c2)c1 [Example 413] | 6 |
| CS(=O)(=O)Nc1cccc(-c2cnc(N[C@@H]3CCCC[C@H]3N[C@H]3CCCN(c4cnc(C(F)(F)F)nc4)C3)o2)c1 [Example 414] | 5 |
| O=C1OCCN1c1cccc(-c2cnc(N[C@@H]3CCCC[C@H]3N[C@H]3CCCN(c4cnc(C(F)(F)F)nc4)C3)o2)c1 [Example 416] | 49 |
| C[C@]1(N[C@H]2CCCC[C@@H]2Nc2cc(-c3cccc(C(N)=O)c3)ccn2)CCCN(c2cnc(C(F)(F)F)nc2)C1 [Example 418] | 48 |
| CC(C)(C)COC(=O)Nc1cccc(-c2cnc(N[C@@H]3CCCC[C@H]3N[C@H]3CCCN(c4cnc(C(F)(F)F)nc4)C3)o2)c1 [Example 420] | 212 |
| CC(C)OC(=O)Nc1cccc(-c2cnc(N[C@@H]3CCCC[C@H]3N[C@H]3CCCN(c4cnc(C(F)(F)F)nc4)C3)o2)c1 [Example 421] | 23 |
| NC(=O)c1cccc(-c2cnc(N[C@@H]3CCCC[C@H]3N[C@H]3C[C@@H]4C[C@H]3N(c3ncc(C(F)(F)F)cn3)C4)o2)c1 [Example 422] | 41 |
| NC(=O)c1cc(-c2cnc(N[C@@H]3CCCC[C@H]3N[C@H]3CCCN(c4cnc(C(F)(F)F)nc4)C3)o2)ccn1 [Example 425] | 15 |
| CNC(=O)c1cccc(-c2cnc(N[C@@H]3CCCC[C@H]3N[C@H]3CCCN(c4cnc(C(F)(F)F)cn4)C3)o2)c1 [Example 429] | 2 |

Other lines, results leading:

| EC50 [nM] | SMILES |
| --- | --- |
| 5 | NC(=O)c1cccc(-c2cnc(N[C@@H]3CCCC[C@H]3N[C@H]3CCCN(c4ncc(C(F)(F)F)cn4)C3)o2)c1 [Example 398] |
| 1480 | FC(F)(F)Oc1ccc(-c2cnc(N[C@@H]3CCCC[C@H]3N[C@H]3CCCN(c4cnc(C(F)(F)F)nc4)C3)o2)cc1 [Example 401] |
| 161 | Fc1ccccc1-c1cnc(N[C@@H]2CCCC[C@H]2N[C@H]2CCCN(c3cnc(C(F)(F)F)nc3)C2)o1 [Example 402] |
| 4 | C[C@]1(N[C@@H]2CCCC[C@H]2Nc2ncc(-c3cccc(C(N)=O)c3)o2)CCCN(c2ncc(C(F)(F)F)cn2)C1 [Example 405] |
| 66 | FC(F)(F)c1ncc(N2CCC[C@H](N[C@@H]3CCCC[C@H]3Nc3ncc(-c4ccccc4)o3)C2)cn1 [Example 406] |
| 4 | CNC(=O)c1cccc(-c2cnc(N[C@@H]3CCCC[C@H]3N[C@H]3CCCN(c4cnc(C(F)(F)F)nc4)C3)o2)c1 [Example 409] |
| 19 | CS(=O)(=O)Nc1cccc(-c2ccnc(N[C@@H]3CCCC[C@H]3N[C@H]3CCCN(c4cnc(C(F)(F)F)nc4)C3)c2)c1 [Example 415] |
| 6 | CCNC(=O)Nc1cccc(-c2cnc(N[C@@H]3CCCC[C@H]3N[C@H]3CCCN(c4cnc(C(F)(F)F)nc4)C3)o2)c1 [Example 417] |
| 7 | CC(C)COC(=O)Nc1cccc(-c2cnc(N[C@@H]3CCCC[C@H]3N[C@H]3CCCN(c4cnc(C(F)(F)F)nc4)C3)o2)c1 [Example 419] |
| 222 | FC(F)(F)Oc1ccc(-c2cnc(N[C@@H]3CCCC[C@H]3N[C@H]3C[C@@H]4C[C@H]3N(c3ncc(C(F)(F)F)cn3)C4)o2)cc1 [Example 423] |
| 69 | NC(=O)c1cccc(-c2ccnc(N[C@@H]3CCCC[C@H]3N[C@H]3C[C@@H]4C[C@H]3N(c3ncc(C(F)(F)F)cn3)C4)c2)c1 [Example 424] |
| 600 | N#Cc1ccnc(N[C@@H]2CCCC[C@H]2N[C@H]2CCCN(c3cnc(C(F)(F)F)nc3)C2)c1 [Example 426] |
| 1 | COC(=O)Nc1cccc(-c2cnc(N[C@@H]3CCCC[C@H]3N[C@H]3CCCN(c4cnc(C(F)(F)F)cn4)C3)o2)c1 [Example 427] |
| 4 | CNC(=O)Nc1cccc(-c2cnc(N[C@@H]3CCCC[C@H]3N[C@H]3CCCN(c4cnc(C(F)(F)F)nc4)C3)o2)c1 [Example 428] |
